According to paper PMC9854762, “Antibiofilm and Anti-Quorum-Sensing Activities of Novel Pyrazole and Pyrazolo[1,5-a]pyrimidine Derivatives as Carbonic Anhydrase I and II Inhibitors: Design, Synthesis, Radiosterilization, and Molecular Docking Studies” (Antibiotics, 2023):
≈ marks a conversion by molar mass, not a printed value.

How the values were obtained:
A. baumannii DH-243 = experiment: Agar well-diffusion assay; type: cell-based; settings: Acinetobacter baumannii, DH243; A. baumannii DH-243; 50 µL of 10 mM per well; read-out: Diameter of Inhibition Zones (AZOI)
Experimental: (§1) The synthesized compounds were initially screened for their in vitro antibacterial activity against the different Gram-positive and Gram-negative bacteria, tested using the agar well-diffusion assay. The turbidity of the bacterial suspensions was established to the 0.5 McFarland turbidity standard. The activity was performed on TS agar plates. The bacteria were spread on the surface of the agar plates, and 10 mm wells were screwed into the agar plates. The assay was performed under aseptic conditions. An aliquot of 50 µL of each tested compound (10 mM) was added to the wells, and the plates were incubated overnight at 37 °C. Both Erythromycin and Amikacin antibiotic disks were used as positive control, while DMSO solvent was used as a negative control in this study. The diameters of inhibition zones were measured and recorded in mm. A comparative study of the synthesized compounds was determined. The experiment was performed in triplicates.

E. coli DH-5987 = experiment: Agar well-diffusion assay; type: cell-based; settings: Escherichia coli, DH5987, 50 µL of 10 mM per well, read-out: Diameter of Inhibition Zones (AZOI)
Experimental: as §1

E. faecalis DH-5478 = experiment: Agar well-diffusion assay; type: cell-based; settings: Enterococcus faecalis, DH5478; E. faecalis DH-5478; 50 µL of 10 mM per well; read-out: Diameter of Inhibition Zones (AZOI)
Experimental: as §1

S. aureus DH-432 = experiment: Agar well-diffusion assay; type: cell-based; settings: Staphylococcus aureus, DH432; S. aureus DH-432; 50 µL of 10 mM per well; read-out: Diameter of Inhibition Zones (AZOI)
Experimental: as §1

S. pyogenes DH-3467 = experiment: Agar well-diffusion assay; type: cell-based; settings: Streptococcus pyogenes, DH3467; S. pyogenes DH-3467; 50 µL of 10 mM per well; read-out: Diameter of Inhibition Zones (AZOI)
Experimental: as §1

P. aeruginosa DH-5698 = experiment: Agar well-diffusion assay; type: cell-based, Pseudomonus aeruginosa; settings: Pseudomonas aeruginosa, DH5698; P. aeruginosa DH-5698; 50 µL of 10 mM per well; read-out: Diameter of Inhibition Zones (AZOI)
Experimental: as §1

Gram-negative isolates = experiment: Broth microdilution MIC/MBC, summary; type: cell-based
Experimental: (§2) The broth microdilution method was taken as a basis to detect the MICs of pyrazole compounds against tested clinical isolates, according to the Clinical Laboratory and Standards Institute guidelines. The broth cultures were used to prepare the bacterial inoculums, and the suspensions were adjusted to the standard 0.5 McFarland turbidity. Stock solutions of the synthesized pyrazoles were prepared in pure DMSO and further serially diluted with TS broth in the concentration range from 128 µg/mL to 0.0625 µg/mL. A well containing noninoculated TS broth, free of any antimicrobial agents, was also included to ensure the medium sterility, while Erythromycin and Amikacin served as positive controls. Bacterial growth was determined by adding 20 µL of 0.5% TTC (2,3,5-triphenyltetrazolium chloride) aqueous solution. […] All experiments were repeated three times. The bactericidal effect from each concentration of the pyrazole and pyrazolo[1,5-a]pyrimidine derivatives showing growth inhibition was further studied. For this study, a loopful of 5 µL was taken from each no-visible growth tube and streaked onto plates of TS agar.

Gram-positive isolates = experiment: Broth microdilution MIC/MBC, summary; type: cell-based
Experimental: as §2

tested isolates = experiment: Broth microdilution MIC/MBC, summary; type: cell-based
Experimental: as §2

Row | SMILES | zone of inhibition at 10000 µM (A. baumannii DH-243) | zone of inhibition at 10000 µM (E. coli DH-5987) | zone of inhibition at 10000 µM (E. faecalis DH-5478) | zone of inhibition at 10000 µM (S. aureus DH-432) | zone of inhibition at 10000 µM (S. pyogenes DH-3467) | zone of inhibition at 10000 µM (P. aeruginosa DH-5698) | MIC (Gram-negative isolates) | MIC (Gram-positive isolates) | MIC (tested isolates; other isolates (not S. aureus, E. coli)) | MIC (tested isolates; S. aureus, E. faecalis, and P. aeruginosa) | MBC (Gram-positive isolates)
1 | CCOC(=O)c1ccc(N=Nc2c(N)n[nH]c2N)cc1 [Compound 3a, Ethyl 4-((3,5-diamino-1H-pyrazol-4-yl)diazenyl)benzoate] | 29.3 mm | 32 mm | 30.6 mm | 31.1 mm | 31.5 mm | 30.8 mm | 0.062 to 0.25 µg/mL (≈ 0.226 to 0.911 µM) | 0.125 µg/mL (≈ 0.456 µM) | – | – | –
2 | CCOC(=O)c1ccc(N=Nc2c(N=Cc3ccc(N(C)C)cc3)n[nH]c2N)cc1 [Compound 5a, Ethyl 4-((5-amino-3-((4-(dimethylamino)benzylidene)amino)-1H-pyrazol-4-yl)diazenyl)benzoate] | 28 mm | 29.9 mm | 28.2 mm | 28.6 mm | 28.9 mm | 28.3 mm | – | – | 0.5 µg/mL (≈ 1.23 µM) | – | –
3 | CCOC(=O)c1ccc(N=Nc2c(N)nn3c(C)cc(C)nc23)cc1 [Compound 6, ethyl-4-((2-amino-5,7-dimethylpyrazolo[1,5-a]pyrimidin-3-yl)diazenyl)benzoate] | 28.8 mm | 31 mm | 29.5 mm | 29.5 mm | 30.2 mm | 28.8 mm | – | – | – | 0.187 to 0.375 µg/mL (≈ 0.553 to 1.11 µM) | –
4 | CCOC(=O)c1ccc(N=Nc2c(N)nn3c(N)c(C#N)c(-c4ccc(N(C)C)cc4)nc23)cc1 [Compound 9a, Ethyl-4-((2,7-diamino-6-cyano-5-(4-(dimethylamino)phenyl)pyrazolo[1,5-a]pyrimidin-3-yl)diazenyl)benzoate] | 28.4 mm | 30.4 mm | 28.7 mm | 29.1 mm | 29.3 mm | 28.5 mm | – | 0.25 to 0.5 µg/mL (≈ 0.532 to 1.06 µM) | – | – | 0.125 to 0.25 µg/mL (≈ 0.266 to 0.532 µM)
5 | CCOC(=O)c1ccc(N=Nc2c(N)nn3c(O)c(C#N)c(-c4ccc(N(C)C)cc4)nc23)cc1 [Compound 10a, Ethyl-4-((2-amino-6-cyano-5-(4-(dimethylamino)phenyl)-7-hydroxypyrazolo[1,5-a]pyrimidin-3-yl)diazenyl)benzoate] | 29.1 mm | 31.5 mm | 29.8 mm | 30.6 mm | 30.7 mm | 30.1 mm | – | – | – | – | –
